Assay results taken from US12084437B2, “Halo-substituted piperidines as orexin receptor modulators” (AstraZeneca AB, priority 2016, dated 2024).
“And” between values parts separate entries of the source, which are not always exact repeats. Equal entries are not always repeated.

Key:
OX2 = biological target: T1, OX2 (Homo sapiens, UniProt O43614); assay: Orexin receptor cell-based functional assay, [Ca2+]i by FLIPR, CHO-OX2 cells; settings: FLIPR calcium, antagonism of EC90 of [OX]
T1 construct: expressed in transfected cells; host or cells: CHO (CHO-OX2)
T1 sequence (O43614 1-444): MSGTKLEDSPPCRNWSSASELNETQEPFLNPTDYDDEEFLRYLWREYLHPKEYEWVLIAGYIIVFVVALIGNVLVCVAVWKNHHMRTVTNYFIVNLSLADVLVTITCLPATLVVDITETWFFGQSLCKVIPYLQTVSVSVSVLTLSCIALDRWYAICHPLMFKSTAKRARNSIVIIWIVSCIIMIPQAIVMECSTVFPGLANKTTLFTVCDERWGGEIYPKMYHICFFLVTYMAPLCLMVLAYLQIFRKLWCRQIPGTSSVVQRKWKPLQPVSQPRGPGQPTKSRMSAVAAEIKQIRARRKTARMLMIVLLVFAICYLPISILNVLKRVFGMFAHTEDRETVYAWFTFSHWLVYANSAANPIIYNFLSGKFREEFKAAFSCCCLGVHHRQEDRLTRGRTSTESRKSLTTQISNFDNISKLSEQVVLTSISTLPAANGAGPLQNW
Method in brief: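 CHO cells expressing human OX1 or OX2 (20,000/well, grown overnight) were loaded with Calcium6 dye plus 2.5 mM probenecid for 2 h at 37 °C, then preincubated 30 min with compound (0.1 nM–10 µM). FLIPR fluorescence (ex 488/em 540 nm) was tracked before and after an EC90 orexin challenge.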

OX1 = biological target: T2, OX1 (Homo sapiens, UniProt O43613); assay: Orexin receptor cell-based functional assay, [Ca2+]i by FLIPR, CHO-OX1 cells; settings: FLIPR calcium, antagonism of EC90 of [OX], read-out: OXI, IC50
T2 construct: expressed in transfected cells; host or cells: CHO (CHO-OX1)
T2 sequence (O43613 1-425): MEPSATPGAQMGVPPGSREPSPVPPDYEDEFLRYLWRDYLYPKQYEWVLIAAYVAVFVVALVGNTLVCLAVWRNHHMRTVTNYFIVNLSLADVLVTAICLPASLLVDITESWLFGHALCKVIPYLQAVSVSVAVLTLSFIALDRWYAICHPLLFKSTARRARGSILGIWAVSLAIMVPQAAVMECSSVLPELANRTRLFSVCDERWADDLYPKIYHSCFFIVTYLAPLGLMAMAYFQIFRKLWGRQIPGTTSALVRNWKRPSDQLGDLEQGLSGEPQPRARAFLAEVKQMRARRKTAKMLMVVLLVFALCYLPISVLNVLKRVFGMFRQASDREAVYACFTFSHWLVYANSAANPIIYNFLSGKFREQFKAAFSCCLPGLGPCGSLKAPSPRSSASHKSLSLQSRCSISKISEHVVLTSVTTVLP

| SMILES | IC50 (OX2) [nM] | IC50 (OX1) |
| --- | --- | --- |
| C[C@@H]1CC(F)(F)CN(C(=O)c2cc(F)ccc2-c2nnn(C)n2)[C@@H]1CNc1ncc(C(F)(F)F)cn1 [Compound 252, ((2S,3R)-5,5-difluoro-3-methyl-2-(((5-(trifluoromethyl)pyrimidin-2-yl)amino)methyl)piperidin-1-yl)(5-fluoro-2-(2-methyl-2H-tetrazol-5-yl)phenyl)methanone] | > 5000 | 8 nM |
| Cc1ccnc(-c2cn(C)nc2C(=O)N2CC(F)(F)C[C@@H](C)[C@H]2CNc2ncc(C(F)(F)F)cn2)n1 [Compound 225, ((2S,3R)-5,5-difluoro-3-methyl-2-(((5-(trifluoromethyl)pyrimidin-2-yl)amino)methyl)piperidin-1-yl)(1-methyl-4-(4-methylpyrimidin-2-yl)-1H-pyrazol-3-yl)methanone] | > 5000 | 17 nM |
| Cc1cccc(-c2cn(C)nc2C(=O)N2CC(F)(F)C[C@@H](C)[C@H]2CNc2cnc(C(F)(F)F)cn2)c1 [Compound 123] | > 5000 | 2 nM |
| Cc1ccc(-c2ncccn2)c(C(=O)N2CC(F)(F)C[C@@H](C)[C@H]2CNc2ncc(Cl)cn2)n1 [Compound 18, ((2S,3R)-2-(((5-chloropyrimidin-2-yl)amino)methyl)-5,5-difluoro-3-methylpiperidin-1-yl)(6-methyl-3-(pyrimidin-2-yl)pyridin-2-yl)methanone] | > 5000 | 18 nM |
| Cc1ccc(-c2cn(C)nc2C(=O)N2CC(F)(F)C[C@@H](C)[C@H]2CNc2ncc(C(F)(F)F)cn2)cc1 [Compound 32] | > 5000 | 12 nM and 6 nM |
| Cc1ccc(-c2ccc(C)nc2C(=O)N2CC(F)(F)C[C@@H](C)[C@H]2CNc2ncc(C(F)(F)F)cn2)nc1 [Compound 231, ((2S,3R)-5,5-difluoro-3-methyl-2-(((5-(trifluoromethyl)pyrimidin-2-yl)amino)methyl)piperidin-1-yl)(5,6′-dimethyl-[2,3′-bipyridin]-2′-yl)methanone] | > 5000 | 14 nM |
| Cc1nc(C(=O)N2CC(F)(F)C[C@@H](C)[C@H]2CNc2ncc(C(F)(F)F)cn2)c(-c2ncccc2C)s1 [Compound 75] | > 5000 | 12 nM |
| Cc1nc(C(=O)N2CC(F)(F)C[C@@H](C)[C@H]2CNc2ncc(C(F)(F)F)cn2)c(-c2cccc(F)c2)s1 [Compound 67] | 1110 | 5 nM |
| C[C@@H]1CC(F)(F)CN(C(=O)c2nn(C)cc2-c2ncccn2)[C@@H]1COc1ncc(C(F)(F)F)cn1 [Compound 222, ((2S,3R)-5,5-difluoro-3-methyl-2-(((5-(trifluoromethyl)pyrimidin-2-yl)oxy)methyl)piperidin-1-yl)(1-methyl-4-(pyrimidin-2-yl)-1H-pyrazol-3-yl)methanone] | > 5000 | 26 nM |
| Cc1noc(-c2ccc(Cl)cc2C(=O)N2CC(F)(F)C[C@@H](C)[C@H]2CNc2ncc(C(F)(F)F)cn2)n1 [Compound 19] | > 5000 | 10 nM |
| C[C@@H]1CC(F)(F)CN(C(=O)c2cnn(C)c2-c2ccccn2)[C@@H]1CNc1ncc(Cl)cn1 [Compound 96] | > 5000 | > 1000 nM |
| C[C@@H]1CC(F)(F)CN(C(=O)c2nn(C)cc2-c2ncccn2)[C@@H]1CNc1ncc(C(F)(F)F)cn1 [Compound 97, ((2S,3R)-5,5-difluoro-3-methyl-2-(((5-(trifluoromethyl)pyrimidin-2-yl)amino)methyl)piperidin-1-yl)(1-methyl-4-(pyrimidin-2-yl)-1H-pyrazol-3-yl)methanone] | > 5000 | 12 nM |
| Cc1nc(C(=O)N2CC(F)(F)C[C@@H](C)[C@H]2CNc2ncc(C(F)(F)F)cn2)c(-c2ccccc2)s1 [Compound 65] | > 5000 | 2 nM |
| C[C@@H]1CC(F)(F)CN(C(=O)c2nn(C)nc2-c2ccccn2)[C@@H]1CNc1ncc(C(F)(F)F)cn1 [Compound 83] | > 5000 | 56 nM |
| C[C@@H]1CC(F)(F)CN(C(=O)c2nn(C)cc2-c2ccc(Cl)cc2)[C@@H]1CNc1ncc(C(F)(F)F)cn1 [Compound 33] | 4700 | 4 nM |
| Cc1nc(C(=O)N2CC(F)(F)C[C@@H](C)[C@H]2CNc2ncc(Cl)cn2)c(-c2ccc(F)cc2)s1 [Compound 69] | > 5000 | 9 nM |

| SMILES | IC50 (OX2) [nM] | IC50 (OX1) |
| --- | --- | --- |
| Cc1ccnc(-c2sc(C)nc2C(=O)N2CC(F)(F)C[C@@H](C)[C@H]2CNc2cnc(C(F)(F)F)cn2)c1 [Compound 147] | > 5000 | 5 nM |
| Cc1nc(C(=O)N2CC(F)(F)C[C@@H](C)[C@H]2CNc2ncc(C(F)(F)F)cn2)c(-c2ccc(F)cc2)s1 [Compound 68, ((2S,3R)-5,5-difluoro-3-methyl-2-(((5-(trifluoromethyl)pyrimidin-2-yl)amino)methyl)piperidin-1-yl)(5-(4-fluorophenyl)-2-methylthiazol-4-yl)methanone] | > 5000 | 8 nM |
| Cc1c(-c2ncccn2)c(C(=O)N2CC(F)(F)C[C@@H](C)[C@H]2CNc2ncc(C(F)(F)F)cn2)nn1C [Compound 233, ((2S,3R)-5,5-difluoro-3-methyl-2-(((5-(trifluoromethyl)pyrimidin-2-yl)amino)methyl)piperidin-1-yl)(1,5-dimethyl-4-(pyrimidin-2-yl)-1H-pyrazol-3-yl)methanone] | > 5000 | 1 nM |
| C[C@@H]1CC(F)(F)CN(C(=O)c2nn(C)cc2-c2ccc(F)cc2)[C@@H]1CNc1ccc(C(F)(F)F)cn1 [Compound 169] | > 5000 | 2 nM |
| C[C@@H]1CC(F)(F)CN(C(=O)c2nn(C)cc2-c2ncc(F)cn2)[C@@H]1COc1ccc(C(F)(F)F)cn1 [Compound 248] | > 5000 | 50 nM |
| CCc1cnc(NC[C@@H]2[C@H](C)CC(F)(F)CN2C(=O)c2nn(C)cc2-c2ccc(F)cn2)nc1 [Compound 41] | > 5000 | > 5000 nM |
| Cc1cccc(-c2sc(C)nc2C(=O)N2CC(F)(F)C[C@@H](C)[C@H]2CNc2ncc(C(F)(F)F)cn2)n1 [Compound 77] | > 5000 | 4 nM |
| C[C@@H]1CC(F)(F)CN(C(=O)c2cc(Cl)ccc2-c2ncccn2)[C@@H]1CNc1ncc(C(F)(F)F)cn1 [Compound 56, (5-chloro-2-(pyrimidin-2-yl)phenyl)((2S,3R)-5,5-difluoro-3-methyl-2-(((5-(trifluoromethyl)pyrimidin-2-yl)amino)methyl)piperidin-1-yl)methanone] | > 5000 | 7 nM |
| C[C@@H]1CC(F)(F)CN(C(=O)c2cc(Cl)ccc2-n2ncnn2)[C@@H]1CNc1ncc(C(F)(F)F)cn1 [Compound 4] | > 5000 | 81 nM |
| Cc1ccc(-c2sc(C)nc2C(=O)N2CC(F)(F)C[C@@H](C)[C@H]2CNc2cnc(C(F)(F)F)cn2)nc1 [Compound 148] | > 5000 | 6 nM |
| Cc1c(-c2ncc(F)cn2)c(C(=O)N2CC(F)(F)C[C@@H](C)[C@H]2CNc2ncc(C(F)(F)F)cn2)nn1C [Compound 264, ((2S,3R)-5,5-difluoro-3-methyl-2-(((5-(trifluoromethyl)pyrimidin-2-yl)amino)methyl)piperidin-1-yl)(4-(5-fluoropyrimidin-2-yl)-1,5-dimethyl-1H-pyrazol-3-yl)methanone] | > 5000 | 3 nM |
| CCn1cc(-c2ncccn2)c(C(=O)N2CC(F)(F)C[C@@H](C)[C@H]2CNc2ncc(C(F)(F)F)cn2)n1 [Compound 232, ((2S,3R)-5,5-difluoro-3-methyl-2-(((5-(trifluoromethyl)pyrimidin-2-yl)amino)methyl)piperidin-1-yl)(1-ethyl-4-(pyrimidin-2-yl)-1H-pyrazol-3-yl)methanone] | > 5000 | 82 nM |
| Cc1cccc(-c2sc(C)nc2C(=O)N2CC(F)(F)C[C@@H](C)[C@H]2CNc2ccc(C(F)(F)F)cn2)c1 [Compound 187] | 3000 | 7 nM |
| Cc1cnc(-c2cn(C)nc2C(=O)N2CC(F)(F)C[C@@H](C)[C@H]2CNc2ncc(C(F)(F)F)cn2)nc1 [Compound 219, ((2S,3R)-5,5-difluoro-3-methyl-2-(((5-(trifluoromethyl)pyrimidin-2-yl)amino)methyl)piperidin-1-yl)(1-methyl-4-(5-methylpyrimidin-2-yl)-1H-pyrazol-3-yl)methanone] | > 5000 | 120 nM |
| C[C@@H]1CC(F)(F)CN(C(=O)c2nn(C)cc2-c2ccc(F)cc2)[C@@H]1CNc1ncc(Cl)cn1 [Compound 31] | > 5000 | 4 nM |
